Measured values published in patent US20060135515A1, “Heterocyclic amides and their use treating thromboembolic diseases and tumors” (priority 2002, published 2006).

Experiments:
FXa = FXa (Homo sapiens, UniProt P00742); experiment: Inhibition of factor Xa (FXa-IC50); format: biochemical
Description: The inhibition of factor Xa by the compounds according to the invention and the measurement of the anticoagulant and antithrombotic activity can be determined by conventional in-vitro or in-vivo methods. A suitable method is described, for example, by J. Hauptmann et al. in Thrombosis and Haemostasis 1990, 63, 220-223.
The inhibition of factor Xa can be measured, for example by the method of T. Hara et al. in Thromb. Haemostas. 1994, 71, 314-319.

TF/FVIla = TF/FVIla (Homo sapiens, UniProt P08709); experiment: Inhibition of TF/factor VIIa (TF/FVIIa-IC50); format: biochemical
Description: The inhibition of factor VIIa by the compounds according to the invention and the measurement of the anticoagulant and antithrombotic activity can be determined by conventional in-vitro or in-vivo methods. A conventional method for the measurement of the inhibition of factor VIIa is described, for example, by H. F. Ronning et al. in Thrombosis Research 1996, 84, 73-81.

Sequence of FXa (P00742 235-488 limits assumed): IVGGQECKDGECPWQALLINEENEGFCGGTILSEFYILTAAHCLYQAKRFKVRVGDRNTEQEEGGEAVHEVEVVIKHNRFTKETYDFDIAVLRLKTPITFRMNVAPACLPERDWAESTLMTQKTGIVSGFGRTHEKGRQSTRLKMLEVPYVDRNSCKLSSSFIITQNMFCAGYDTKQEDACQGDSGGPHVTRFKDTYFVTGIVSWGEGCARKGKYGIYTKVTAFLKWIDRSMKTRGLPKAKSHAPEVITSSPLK
Sequence of FXa (P00742 41-179 partner limits assumed): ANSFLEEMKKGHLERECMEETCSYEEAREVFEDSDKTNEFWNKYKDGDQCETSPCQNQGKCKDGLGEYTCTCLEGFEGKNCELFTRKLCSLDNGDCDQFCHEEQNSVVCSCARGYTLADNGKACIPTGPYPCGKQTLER
Sequence of TF/FVIla (P08709 213-466 limits assumed): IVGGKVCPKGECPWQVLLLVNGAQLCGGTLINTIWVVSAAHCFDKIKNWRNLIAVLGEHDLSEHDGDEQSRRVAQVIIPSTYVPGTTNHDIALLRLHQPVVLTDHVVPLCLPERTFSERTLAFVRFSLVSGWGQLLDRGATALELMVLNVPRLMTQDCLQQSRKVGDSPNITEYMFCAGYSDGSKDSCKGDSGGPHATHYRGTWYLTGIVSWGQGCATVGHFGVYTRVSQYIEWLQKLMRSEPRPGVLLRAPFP
Sequence of TF/FVIla (P08709 61-212 partner limits assumed): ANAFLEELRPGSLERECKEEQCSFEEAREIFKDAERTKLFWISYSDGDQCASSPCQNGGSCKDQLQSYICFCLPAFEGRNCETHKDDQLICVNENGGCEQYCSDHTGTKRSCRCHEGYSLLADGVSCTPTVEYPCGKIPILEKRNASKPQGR
Sequence of TF/FVIla (P13726 33-295 partner): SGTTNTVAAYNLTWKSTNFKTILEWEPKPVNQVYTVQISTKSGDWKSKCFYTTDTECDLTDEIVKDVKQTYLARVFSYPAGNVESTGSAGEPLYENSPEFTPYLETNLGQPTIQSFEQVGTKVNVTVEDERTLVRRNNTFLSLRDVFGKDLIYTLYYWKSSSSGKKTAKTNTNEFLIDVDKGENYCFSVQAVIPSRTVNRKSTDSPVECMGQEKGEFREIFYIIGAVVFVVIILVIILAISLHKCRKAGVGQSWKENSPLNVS

Compound | IC50 (FXa) [nM] | IC50 (TF/FVIla) [nM]
CCC[C@@H](NC(=O)Nc1ccc(Cl)s1)C(=O)Nc1ccc(N2CCOCC2=O)c(C)c1 [Compound A2, (R)-2-[3-(5-chlorothiophen-2-yl)ureido]-N-[4-(3-oxomorpholin-4-yl)-3-methylphenyl]valeramide] | 66 | 66
CCCC(NC(=O)Nc1ccc(Cl)s1)C(=O)Nc1ccc(N2CCOCC2=O)cc1 (stereo not shown) [Compound A1, N-[4-(3-oxomorpholin-4-yl)-phenyl]-2-[3-(5-chlorothiophen-2-yl)ureido]valeramide] | 190 | 180
